# According to US20140371074A1, “METHOD TO INCREASE PLANT YIELD” (priority 2012, published 2014):
# Legend:
# [1] = system: soybean cultivars L2711R2X, L3385R2; assay: Field 2012: 2,4-D Low Vol 4 + crop oil drizzled onto soil at R1 stage, Laurel, Iowa (Table 2b); type: in vivo
# Description: Plants were treated by drizzling via low pressure spraying the 2,4-D solution onto the soil along each side of the rows when plants are at the R1 stage of growth. The date of planting was May 15, 2012 and the date of harvest was Oct. 2, 2012 at plots in Alexander, Iowa (Table 2a) and Laurel, Iowa (Table 2b). Plants were grown from Roundup Ready seed and were sprayed with glyphosate for weed control. Plants were treated with between 1X and 5.5X of 2,4-D solution mixed with crop oil at 15.3 ounces of 2,4-D Low Vol 4 plus 0.32 ounces crop oil per gallon, where 1X is equivalent to approximately 0.45 pounds acid equivalent of 2,4-D. Two repetitions were performed at different plots. […] The moisture percentages were used in correcting each yield to a 13% moisture basis.
# [2] = system: soybean Latham 2767 Roundup Ready; assay: Field: seed treatment with 2,4-D solution 1X-10X, Laurel, Iowa (Table 6); type: in vivo; conditions: 1X~0.0002968 lb a.e.
# Description: Previously untreated soybean seeds were treated with between 1X to 10X of 2,4-D solution, where 1X is equivalent to approximately 0.0002968 pounds acid equivalent of 2,4-D. The seed variety was Latham 2767 Roundup Ready seeds and seeds were planted in Laurel, Iowa with a row width of 30 inches. Plants were sprayed with foliar insecticide and fungicide.
# [3] = 1.0X Rate, L2711R2X, 1X~0.45 lb a.e.
# [4] = 1.0X Rate, L3385R2, 1X~0.45 lb a.e.
# [5] = 1.5X Rate, L2711R2X, 1X~0.45 lb a.e.
# [6] = 1.5X Rate, L3385R2, 1X~0.45 lb a.e.
# [7] = 2.0X Rate, L2711R2X, 1X~0.45 lb a.e.
# [8] = 2.0X Rate, L3385R2, 1X~0.45 lb a.e.
# [9] = 2.5X Rate, L2711R2X, 1X~0.45 lb a.e.
# [10] = 2.5X Rate, L3385R2, 1X~0.45 lb a.e.
# [11] = 3.0X Rate, L2711R2X, 1X~0.45 lb a.e.
# [12] = 3.0X Rate, L3385R2, 1X~0.45 lb a.e.
# [13] = 3.5X Rate, L2711R2X, 1X~0.45 lb a.e.
# [14] = 3.5X Rate, L3385R2, 1X~0.45 lb a.e.
# [15] = 4.0X Rate, L2711R2X, 1X~0.45 lb a.e.
# [16] = 4.0X Rate, L3385R2, 1X~0.45 lb a.e.
# [17] = 4.5X Rate, L2711R2X, 1X~0.45 lb a.e.
# [18] = 4.5X Rate, L3385R2, 1X~0.45 lb a.e.
# [19] = 5.0X Rate, L2711R2X, 1X~0.45 lb a.e.
# [20] = 5.0X Rate, L3385R2, 1X~0.45 lb a.e.
# [21] = 5.5X Rate, L2711R2X, 1X~0.45 lb a.e.
# [22] = 5.5X Rate, L3385R2, 1X~0.45 lb a.e.
# [23] = Average over 1.0X-3.0X Rates, L2711R2X
# [24] = Average over 1.0X-3.0X Rates, L3385R2
# [25] = Average over 1.0X-5.5X Rates, L2711R2X
# [26] = Average over 1.0X-5.5X Rates, L3385R2
# [27] = Overall location average, all rates, both cultivars
smiles,measurement,setting,value
"O=C(O)COc1ccc(Cl)cc1Cl [2,4-D, 2,4-Dichlorophenoxyacetic acid]",Average Yield,[1]; [3],64.93 Bu/A
same,Repetition 1 Weight,[1]; [3],5.6 Lbs
same,Repetition 1 Yield,[1]; [3],62.69 Bu/A
same,Repetition 2 Weight,[1]; [3],6.0 Lbs
same,Repetition 2 Yield,[1]; [3],67.16 Bu/A
same,Average Yield,[1]; [4],72.50 Bu/A
same,Repetition 1 Weight,[1]; [4],6.7 Lbs
same,Repetition 1 Yield,[1]; [4],73.40 Bu/A
same,Repetition 2 Weight,[1]; [4],6.5 Lbs
same,Repetition 2 Yield,[1]; [4],71.60 Bu/A
same,Average Yield,[1]; [5],67.20 Bu/A
same,Repetition 1 Weight,[1]; [5],6.6 Lbs
same,Repetition 1 Yield,[1]; [5],73.88 Bu/A
same,Repetition 2 Weight,[1]; [5],5.4 Lbs
same,Repetition 2 Yield,[1]; [5],60.51 Bu/A
same,Average Yield,[1]; [6],75.70 Bu/A
same,Repetition 1 Weight,[1]; [6],6.8 Lbs
same,Repetition 1 Yield,[1]; [6],74.34 Bu/A
same,Repetition 2 Weight,[1]; [6],6.9 Lbs
same,Repetition 2 Yield,[1]; [6],77.07 Bu/A
same,Average Yield,[1]; [7],63.41 Bu/A
same,Repetition 1 Weight,[1]; [7],5.7 Lbs
same,Repetition 1 Yield,[1]; [7],64.01 Bu/A
same,Repetition 2 Weight,[1]; [7],5.6 Lbs
same,Repetition 2 Yield,[1]; [7],62.82 Bu/A
same,Average Yield,[1]; [8],70.93 Bu/A
same,Repetition 1 Weight,[1]; [8],6.3 Lbs
same,Repetition 1 Yield,[1]; [8],70.22 Bu/A
same,Repetition 2 Weight,[1]; [8],6.4 Lbs
same,Repetition 2 Yield,[1]; [8],71.64 Bu/A
same,Average Yield,[1]; [9],63.35 Bu/A
same,Repetition 1 Weight,[1]; [9],5.7 Lbs
same,Repetition 1 Yield,[1]; [9],63.87 Bu/A
same,Repetition 2 Weight,[1]; [9],5.6 Lbs
same,Repetition 2 Yield,[1]; [9],62.82 Bu/A
same,Average Yield,[1]; [10],71.91 Bu/A
same,Repetition 1 Weight,[1]; [10],6.3 Lbs
same,Repetition 1 Yield,[1]; [10],70.60 Bu/A
same,Repetition 2 Weight,[1]; [10],6.5 Lbs
same,Repetition 2 Yield,[1]; [10],73.23 Bu/A
same,Average Yield,[1]; [11],63.84 Bu/A
same,Repetition 1 Weight,[1]; [11],5.5 Lbs
same,Repetition 1 Yield,[1]; [11],61.50 Bu/A
same,Repetition 2 Weight,[1]; [11],5.9 Lbs
same,Repetition 2 Yield,[1]; [11],66.19 Bu/A
same,Average Yield,[1]; [12],71.91 Bu/A
same,Repetition 1 Weight,[1]; [12],6.6 Lbs
same,Repetition 1 Yield,[1]; [12],74.12 Bu/A
same,Repetition 2 Weight,[1]; [12],6.2 Lbs
same,Repetition 2 Yield,[1]; [12],69.70 Bu/A
same,Repetition 1 Weight,[1]; [13],5.7 Lbs
same,Repetition 1 Yield,[1]; [13],63.74 Bu/A
same,Average Yield,"[1]; 3.5X Rate, L2711R2X, 1X~0.45 lb a.e., repetition 1 only",63.74 Bu/A
same,Repetition 1 Weight,[1]; [14],6.3 Lbs
same,Repetition 1 Yield,[1]; [14],68.94 Bu/A
same,Average Yield,"[1]; 3.5X Rate, L3385R2, 1X~0.45 lb a.e., repetition 1 only",68.94 Bu/A
same,Repetition 1 Weight,[1]; [15],6.1 Lbs
same,Repetition 1 Yield,[1]; [15],68.28 Bu/A
same,Average Yield,"[1]; 4.0X Rate, L2711R2X, 1X~0.45 lb a.e., repetition 1 only",68.28 Bu/A
same,Repetition 1 Weight,[1]; [16],6.7 Lbs
same,Repetition 1 Yield,[1]; [16],74.76 Bu/A
same,Average Yield,"[1]; 4.0X Rate, L3385R2, 1X~0.45 lb a.e., repetition 1 only",74.76 Bu/A
same,Repetition 1 Weight,[1]; [17],6.3 Lbs
same,Repetition 1 Yield,[1]; [17],70.60 Bu/A
same,Average Yield,"[1]; 4.5X Rate, L2711R2X, 1X~0.45 lb a.e., repetition 1 only",70.60 Bu/A
same,Repetition 1 Weight,[1]; [18],6.6 Lbs
same,Repetition 1 Yield,[1]; [18],72.78 Bu/A
same,Average Yield,"[1]; 4.5X Rate, L3385R2, 1X~0.45 lb a.e., repetition 1 only",72.78 Bu/A
same,Repetition 1 Weight,[1]; [19],5.9 Lbs
same,Repetition 1 Yield,[1]; [19],66.11 Bu/A
same,Average Yield,"[1]; 5.0X Rate, L2711R2X, 1X~0.45 lb a.e., repetition 1 only",66.11 Bu/A
same,Repetition 1 Weight,[1]; [20],6.6 Lbs
same,Repetition 1 Yield,[1]; [20],74.12 Bu/A
same,Average Yield,"[1]; 5.0X Rate, L3385R2, 1X~0.45 lb a.e., repetition 1 only",74.12 Bu/A
same,Repetition 1 Weight,[1]; [21],5.4 Lbs
same,Repetition 1 Yield,[1]; [21],60.45 Bu/A
same,Average Yield,"[1]; 5.5X Rate, L2711R2X, 1X~0.45 lb a.e., repetition 1 only",60.45 Bu/A
same,Repetition 1 Weight,[1]; [22],6.3 Lbs
same,Repetition 1 Yield,[1]; [22],70.37 Bu/A
same,Average Yield,"[1]; 5.5X Rate, L3385R2, 1X~0.45 lb a.e., repetition 1 only",70.37 Bu/A
same,Repetition 2 Weight,[1]; [23],5.7 Lbs
same,Repetition 2 Yield,[1]; [23],63.90 Bu/A
same,Repetition 2 Weight,[1]; [24],6.5 Lbs
same,Repetition 2 Yield,[1]; [24],72.65 Bu/A
same,Average Yield,[1]; [25],65.19 Bu/A
same,Repetition 1 Weight,[1]; [25],5.9 Lbs
same,Repetition 1 Yield,[1]; [25],65.51 Bu/A
same,Average Yield,[1]; [26],72.39 Bu/A
same,Repetition 1 Weight,[1]; [26],6.5 Lbs
same,Repetition 1 Yield,[1]; [26],72.36 Bu/A
same,Average Yield,[1]; [27],68.79 Bu/A
same,Repetition 1 Weight,[1]; [27],6.2 Lbs
same,Repetition 1 Yield,[1]; [27],68.94 Bu/A
same,Repetition 2 Weight,[1]; [27],6.1 Lbs
same,Repetition 2 Yield,[1]; [27],68.27 Bu/A
same,Harvested weight,[2]; 1X seed treatment,125 g
same,Yield (Bushels/acre at 13% moisture),[2]; 1X seed treatment,60.71 Bushels/acre
same,Harvested weight,[2]; 2X seed treatment,90 g
same,Yield (Bushels/acre at 13% moisture),[2]; 2X seed treatment,42.26 Bushels/acre
same,Harvested weight,[2]; 3X seed treatment,100 g
same,Yield (Bushels/acre at 13% moisture),[2]; 3X seed treatment,45.23 Bushels/acre
same,Harvested weight,[2]; 4X seed treatment,100 g
same,Yield (Bushels/acre at 13% moisture),[2]; 4X seed treatment,44.23 Bushels/acre
same,Harvested weight,[2]; 5X seed treatment,105 g
same,Yield (Bushels/acre at 13% moisture),[2]; 5X seed treatment,45.33 Bushels/acre
same,Harvested weight,[2]; 6X seed treatment,110 g
same,Yield (Bushels/acre at 13% moisture),[2]; 6X seed treatment,48.22 Bushels/acre
same,Harvested weight,[2]; 7X seed treatment,105 g
same,Yield (Bushels/acre at 13% moisture),[2]; 7X seed treatment,44.36 Bushels/acre
same,Harvested weight,[2]; 8X seed treatment,110 g
same,Yield (Bushels/acre at 13% moisture),[2]; 8X seed treatment,46.32 Bushels/acre
same,Harvested weight,[2]; 9X seed treatment,100 g
same,Yield (Bushels/acre at 13% moisture),[2]; 9X seed treatment,43.06 Bushels/acre
same,Harvested weight,[2]; 10X seed treatment,95 g
same,Yield (Bushels/acre at 13% moisture),[2]; 10X seed treatment,42.12 Bushels/acre
